From patent US8323971B2, “Differentiation of pluripotent cells into primary germ layer progenitors” (Cambridge Enterprise Limited, priority 2006, dated 2012)

Test system: hESCs
Assay: Real time PCR of hESCs after addition of BMP4 in CDM (extra-embryonic differentiation)
Assay type: cell-based, human
Conditions: 10 ng/ml in CDM
Procedure: hESCs grown in Feeder free and serum free conditions were harvested using 5 mg/ml collagenase IV then plated into plates pre-coated with fibronectin. hESCs were grown for 48 hours in CDM supplemented with Activin (10 ng/ml, RandD systems) and FGF2 (12 ng/ml, RandD systems). To induce extra-embryonic differentiation, hESCs were grown for 5 additional days in CDM supplemented with BMP4 (10 ng/ml, RandD systems). To obtain neuroectoderm progenitors, hESCs were grown in CDM or in CDM-PVA in the presence of SB431542 (10 μM Tocris) and FGF2 (12 ng/ml, RandD systems) for 7 additional days. The resulting cells were grown in non-adherent conditions for 10 days and then plated back for 5 additional days in CDM to obtain fully differentiated neuronal cells. To obtain mesendoderm precursors, hESCs were grown for 3 additional days in CDM-PVA in the presence of SU5402 (10 μM, Calbiochem) and Activin (5 ng/ml, RandD systems). On the fifth day after passaging, the resulting cells were grown in CDM-PVA in the presence of BMP4 (10 ng/ml, RandD systems), FGF2 (20 ng/ml, RandD systems) and Activin (30 ng/ml or 100 ng/ml, RandD systems).
Total RNAs were extracted from hESCs or differentiated progenitors using the RNeasy Mini or Micro Kits (Qiagen). Each sample was treated with RNAse-Free DNAse (Qiagen) in order to avoid DNA contamination. […]

BMP4: Bone Morphogenetic Protein 4 growth factor
expression of extra-embryonic markers including GATA6 and H19: strongly enhanced
level of Oct-4 transcripts (after 16 hours): significant decrease
